Experiments:
[1] = system: T47D hormone-dependent breast cancer cell line; assay: Cytotoxic assay; details: Homo sapiens, 48 h, read-out: Cytotoxic activity IC50, T47D
L858R/T790M mutant EGFR = L858R/T790M mutant EGFR (Homo sapiens, UniProt P00533, L858R/T790M); assay: ADP-Glo kinase assay, L858R/T790M mutant EGFR; type: biochemical
[2] = system: MOLT-3 lymphoblastic leukemia cell line; assay: Cytotoxic assay; details: for IC50: Homo sapiens, MOLT-3, 48 h, read-out: Cytotoxic activity IC50, MOLT-3
[3] = system: A549 lung carcinoma cell line; assay: Cytotoxic assay; details: Homo sapiens, A549, 48 h, read-out: Cytotoxic activity IC50, A549
[4] = system: HuCCA-1 cholangiocarcinoma cancer cell line; assay: Cytotoxic assay; details: Homo sapiens, HuCC-A1, 48 h, read-out: Cytotoxic activity IC50, HuCCA-1
Cytotoxic assay = details: human, MRC-5 normal embryonic lung cell line
[5] = system: HepG2 hepatocellular carcinoma cell line; assay: Cytotoxic assay; details: for IC50: Homo sapiens, HepG2, 48 h, read-out: Cytotoxic activity IC50, HepG2
wild-type EGFR = wild-type EGFR (Homo sapiens, UniProt P00533); assay: ADP-Glo kinase assay, wild-type EGFR; type: biochemical
Sequence of wild-type EGFR (P00533 25-1210): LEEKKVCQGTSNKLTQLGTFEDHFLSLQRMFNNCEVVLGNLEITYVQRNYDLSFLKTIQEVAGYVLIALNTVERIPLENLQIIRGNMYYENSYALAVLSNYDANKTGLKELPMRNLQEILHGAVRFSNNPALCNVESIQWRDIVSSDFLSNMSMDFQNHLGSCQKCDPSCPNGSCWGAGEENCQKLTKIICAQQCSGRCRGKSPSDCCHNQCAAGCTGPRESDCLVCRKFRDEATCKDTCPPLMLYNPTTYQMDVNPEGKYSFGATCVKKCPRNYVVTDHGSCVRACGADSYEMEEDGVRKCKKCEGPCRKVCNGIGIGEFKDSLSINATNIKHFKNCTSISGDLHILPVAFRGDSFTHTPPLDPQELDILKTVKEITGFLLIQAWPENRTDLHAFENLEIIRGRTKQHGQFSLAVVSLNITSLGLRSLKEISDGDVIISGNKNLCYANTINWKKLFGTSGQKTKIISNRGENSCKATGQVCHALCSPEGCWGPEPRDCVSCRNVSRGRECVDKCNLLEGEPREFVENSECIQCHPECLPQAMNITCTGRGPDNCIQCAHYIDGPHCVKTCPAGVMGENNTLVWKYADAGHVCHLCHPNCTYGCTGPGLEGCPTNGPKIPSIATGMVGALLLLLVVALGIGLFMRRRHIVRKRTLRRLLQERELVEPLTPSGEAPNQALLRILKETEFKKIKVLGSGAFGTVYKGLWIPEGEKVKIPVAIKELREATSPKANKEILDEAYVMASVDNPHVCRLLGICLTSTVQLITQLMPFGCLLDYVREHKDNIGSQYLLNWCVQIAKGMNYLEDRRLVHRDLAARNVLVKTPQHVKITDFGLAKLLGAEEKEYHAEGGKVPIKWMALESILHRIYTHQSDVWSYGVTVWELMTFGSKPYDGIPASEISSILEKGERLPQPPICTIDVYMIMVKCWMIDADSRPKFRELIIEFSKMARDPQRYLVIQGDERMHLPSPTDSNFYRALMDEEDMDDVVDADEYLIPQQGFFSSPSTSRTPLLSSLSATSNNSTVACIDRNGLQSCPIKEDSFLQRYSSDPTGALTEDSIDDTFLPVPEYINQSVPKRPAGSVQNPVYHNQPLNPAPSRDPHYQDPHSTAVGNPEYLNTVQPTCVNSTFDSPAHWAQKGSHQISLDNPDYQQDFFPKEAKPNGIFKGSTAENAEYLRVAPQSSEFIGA

[6] = system: MDA-MB-231 hormone-independent breast cancer cell line; assay: Cytotoxic assay; details: Homo sapiens, MDA-MB-231, 48 h, read-out: Cytotoxic activity IC50, MDA-MB-231

Sequence of L858R/T790M mutant EGFR (P00533 25-1210 T790M/L858R): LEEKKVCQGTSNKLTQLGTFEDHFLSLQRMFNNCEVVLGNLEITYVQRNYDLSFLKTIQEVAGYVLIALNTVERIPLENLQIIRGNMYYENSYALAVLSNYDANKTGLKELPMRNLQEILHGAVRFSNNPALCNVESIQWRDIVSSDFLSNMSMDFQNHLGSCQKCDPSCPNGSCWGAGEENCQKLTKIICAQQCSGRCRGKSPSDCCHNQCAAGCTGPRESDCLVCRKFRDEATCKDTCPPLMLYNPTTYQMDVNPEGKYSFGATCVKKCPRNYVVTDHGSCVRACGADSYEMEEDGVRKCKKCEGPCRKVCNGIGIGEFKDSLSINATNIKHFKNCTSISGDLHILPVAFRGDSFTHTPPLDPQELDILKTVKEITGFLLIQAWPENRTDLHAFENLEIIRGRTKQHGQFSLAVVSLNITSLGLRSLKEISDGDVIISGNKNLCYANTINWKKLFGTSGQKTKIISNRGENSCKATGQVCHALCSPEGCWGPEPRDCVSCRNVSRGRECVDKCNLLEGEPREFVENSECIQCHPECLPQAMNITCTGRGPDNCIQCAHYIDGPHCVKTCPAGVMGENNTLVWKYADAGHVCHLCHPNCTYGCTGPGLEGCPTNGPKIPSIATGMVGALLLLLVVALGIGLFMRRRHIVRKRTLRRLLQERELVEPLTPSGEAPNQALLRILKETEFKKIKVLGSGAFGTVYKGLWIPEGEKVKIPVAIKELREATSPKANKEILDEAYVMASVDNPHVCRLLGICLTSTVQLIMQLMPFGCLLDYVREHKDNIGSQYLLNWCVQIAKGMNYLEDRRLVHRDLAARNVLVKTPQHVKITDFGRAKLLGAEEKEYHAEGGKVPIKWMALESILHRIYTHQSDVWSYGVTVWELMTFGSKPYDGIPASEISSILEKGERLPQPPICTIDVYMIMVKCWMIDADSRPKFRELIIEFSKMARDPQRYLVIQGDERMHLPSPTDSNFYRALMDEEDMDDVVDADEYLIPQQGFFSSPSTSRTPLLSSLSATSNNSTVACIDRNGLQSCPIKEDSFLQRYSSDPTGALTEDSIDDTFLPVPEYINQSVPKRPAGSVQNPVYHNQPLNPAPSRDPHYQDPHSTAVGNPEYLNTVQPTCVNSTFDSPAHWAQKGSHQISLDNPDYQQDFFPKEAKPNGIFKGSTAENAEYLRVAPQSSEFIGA

Row | Compound | IC50 [1] | IC50 (L858R/T790M mutant EGFR) | IC50 [2] | IC50 [3] | IC50 [4] | IC50 at 48 h (Cytotoxic assay) | IC50 [5] | IC50 (wild-type EGFR) | EGFR inhibitory activity, times higher than that of erlotinib (wild-type EGFR; ratio of IC50 values, wild-type EGFR) | IC50 [6] | Cytotoxic activity IC50, MOLT-3 [2] | Cytotoxic activity IC50, HepG2 [5]
1 | Cc1ccc(NC2=C(Cl)C(=O)c3ccccc3C2=O)cc1 [compound 3, 2-Chloro-3-(p-tolylamino)naphthalene-1,4-dione] | 39.5 ± 0.3 µM | > 0.1 µM | 4.3 ± 0.46 µM | > 50 µg/mL | 42.2 ± 1.96 µM | 92.43 ± 0.02 µM | 127.4 ± 0.65 µM | 0.00396 ± 0.00066 µM | 4 fold | 10.7 ± 1.89 µM | – | –
2 | O=C1C(Cl)=C(Nc2ccc(F)cc2)C(=O)c2ccccc21 [compound 4, 2-Chloro-3-((4-fluorophenyl)amino)naphthalene-1,4-dione] | 17.9 ± 0.76 µM | – | 7.45 ± 1.06 µM | 148 ± 2.55 µM | 58.7 ± 0.64 µM | 20.2 ± 1.4 µM | 131.9 ± 1.13 µM | – | – | 17 ± 0.2 µM | – | –
3 | O=C1C(Cl)=C(Nc2ccc(Br)cc2)C(=O)c2ccccc21 [compound 5, 2-((4-Bromophenyl)amino)-3-chloronaphthalene-1,4-dione] | > 50 µg/mL | – | > 50 µg/mL | > 50 µg/mL | > 50 µg/mL | > 50 µg/mL | > 50 µg/mL | – | – | > 50 µg/mL | inactive | inactive
4 | O=C1C(Cl)=C(Nc2ccc(I)cc2)C(=O)c2ccccc21 [compound 6, 2-Chloro-3-((4-iodophenyl)amino)naphthalene-1,4-dione] | 52.5 ± 0.85 µM | – | 42.6 ± 8.11 µM | > 50 µg/mL | > 50 µg/mL | > 50 µg/mL | > 50 µg/mL | – | – | > 50 µg/mL | – | –
5 | O=C1C(Cl)=C(Nc2ccc(C(F)(F)F)cc2)C(=O)c2ccccc21 [compound 7, 2-Chloro-3-((4-(trifluoromethyl)phenyl)amino)naphthalene-1,4-dione] | 63.4 ± 2.12 µM | – | 7.68 ± 0.84 µM | > 50 µg/mL | > 50 µg/mL | > 50 µg/mL | > 50 µg/mL | – | – | 70.8 ± 2.19 µM | – | –
6 | O=C1C(Cl)=C(Nc2ccc([N+](=O)[O-])cc2)C(=O)c2ccccc21 [compound 8, 2-Chloro-3-((4-nitrophenyl)amino)naphthalene-1,4-dione] | 11.7 ± 0.19 µM | > 0.1 µM | 1.98 ± 0.28 µM | 70 ± 2.04 µM | 16.3 ± 0.98 µM | 74.9 ± 7.21 µM | 86.1 ± 1.61 µM | 0.0114 ± 0.00035 µM | – | 11.1 ± 2.84 µM | – | –
7 | N#Cc1ccc(NC2=C(Cl)C(=O)c3ccccc3C2=O)cc1 [compound 9, 4-((3-Chloro-1,4-dioxo-1,4-dihydronaphthalen-2-yl)amino)benzonitrile] | 11.27 ± 0.06 µM | – | 1.75 ± 0.2 µM | 72.72 ± 0.21 µM | 22.67 ± 0.09 µM | 18.4 ± 1.65 µM | 73.4 ± 2.26 µM | – | – | 43.08 ± 0.19 µM | – | –
8 | O=C1C(Cl)=C(Nc2cccc([N+](=O)[O-])c2)C(=O)c2ccccc21 [compound 10, 2-Chloro-3-((3-nitrophenyl)amino)naphthalene-1,4-dione] | 19.2 ± 1.77 µM | > 0.1 µM | 2.98 ± 0.25 µM | 114.1 ± 0.71 µM | 42.1 ± 0.74 µM | 74.53 ± 0.71 µM | > 50 µg/mL | 0.0186 ± 0.00141 µM | – | 16.2 ± 0.57 µM | – | –
9 | COc1ccc(NC2=C(Cl)C(=O)c3ccccc3C2=O)cc1 [compound 11, 2-Chloro-3-((4-methoxyphenyl)amino)naphthalene-1,4-dione] | > 50 µg/mL | – | 17.6 ± 3.3 µM | > 50 µg/mL | > 50 µg/mL | > 50 µg/mL | > 50 µg/mL | – | – | 105 ± 2.72 µM | – | –
10 | O=C1C(Cl)=C(Nc2ccc(O)cc2)C(=O)c2ccccc21 [compound 12, 2-Chloro-3-((4-hydroxyphenyl)amino)naphthalene-1,4-dione] | 14.7 ± 0.43 µM | – | 4.67 ± 0.24 µM | 30.73 ± 0.18 µM | 8.21 ± 0.33 µM | 11.4 ± 3.28 µM | 22.6 ± 0.87 µM | – | – | 4.77 ± 0.07 µM | – | –
11 | O=C1C(Br)=C(Nc2ccccc2)C(=O)c2ccccc21 [compound 13, 2-Bromo-3-(phenylamino)naphthalene-1,4-dione] | 10.1 ± 0.27 µM | – | 2.74 ± 0.02 µM | 27.91 ± 0.05 µM | 15.6 ± 0.54 µM | 15.3 ± 2.67 µM | 20.1 ± 0.54 µM | – | – | 9.48 ± 2.17 µM | – | –
12 | O=C1C(Br)=C(Nc2ccc(F)cc2)C(=O)c2ccccc21 [compound 14, 2-Bromo-3-((4-fluorophenyl)amino)naphthalene-1,4-dione] | 28.5 ± 1 µM | – | 4.65 ± 0.41 µM | 50 ± 3 µM | 16.2 ± 1.65 µM | 12.5 ± 0.74 µM | 19.1 ± 0.82 µM | – | – | 7.54 ± 2.07 µM | – | –
13 | O=C1C(Br)=C(Nc2ccc(Br)cc2)C(=O)c2ccccc21 [compound 15, 2-Bromo-3-((4-bromophenyl)amino)naphthalene-1,4-dione] | > 50 µg/mL | – | 7.17 ± 1.12 µM | > 50 µg/mL | 70.2 ± 1.12 µM | > 50 µg/mL | 4.94 ± 0.02 µM | – | – | 65.5 ± 3.01 µM | – | –
14 | O=C1C=C(Nc2ccccc2)C(=O)c2ccccc21 [compound 16, 2-(Phenylamino)naphthalene-1,4-dione] | > 50 µg/mL | – | > 50 µg/mL | 40.8 ± 1.51 µM | 96.2 ± 2.84 µM | > 50 µg/mL | 25.1 ± 3.31 µM | – | – | 30.4 ± 0.86 µM | – | –
15 | O=C1C=C(Nc2ccc(F)cc2)C(=O)c2ccccc21 [compound 17, 2-((4-Fluorophenyl)amino)naphthalene-1,4-dione] | 88.7 ± 1.64 µM | – | > 50 µg/mL | > 50 µg/mL | 9.65 ± 1.99 µM | 21.6 ± 2.45 µM | 23.4 ± 3.45 µM | – | – | 21.8 ± 2.95 µM | – | –
16 | COc1ccc(NC2=CC(=O)c3ccccc3C2=O)cc1 [compound 18, 2-((4-Methoxyphenyl)amino)naphthalene-1,4-dione] | > 50 µg/mL | – | > 50 µg/mL | > 50 µg/mL | > 50 µg/mL | > 50 µg/mL | > 50 µg/mL | – | – | > 50 µg/mL | – | –
17 | COc1cccc2c1C(=O)c1c(O)c3c(c(O)c1C2=O)C[C@@](O)(C(=O)CO)C[C@@H]3O[C@H]1C[C@H](N)[C@H](O)[C@H](C)O1 [doxorubicin, reference compound] | 1.04 ± 0.01 µM | – | 0.02 µM | 0.34 ± 0.01 µM | 1.17 ± 0.05 µM | 2.67 ± 0.2 µM | 0.5 ± 0.04 µM | – | – | 2.1 ± 0.06 µM | – | –
18 | COc1cc([C@@H]2c3cc4c(cc3[C@@H](O[C@@H]3O[C@@H]5CO[C@@H](C)O[C@H]5[C@H](O)[C@H]3O)[C@H]3COC(=O)[C@H]23)OCO4)cc(OC)c1O [etoposide, reference compound] | – | – | 0.05 µM | – | – | – | 50 ± 3.7 µM | – | – | – | – | –
